According to US20110098325A1, “PYRIDINE BENZAMIDES AND PYRAZINE BENZAMIDES USED AS PKD INHIBITORS” (CANCER RESEARCH TECHNOLOGY LIMITED, priority 2006, published 2011):

Target: T1, Murine PKD1 kinase domain (Mus musculus, UniProt Q62101)
T1 construct: hexahistidine (pFastBac HTb leader) (N); made in house; host or cells: Sf9 insect cells, baculovirus (Bac-to-Bac HT, pFastBac HTb)
T1 sequence (Q62101 with tags, fused parts or gaps R683W): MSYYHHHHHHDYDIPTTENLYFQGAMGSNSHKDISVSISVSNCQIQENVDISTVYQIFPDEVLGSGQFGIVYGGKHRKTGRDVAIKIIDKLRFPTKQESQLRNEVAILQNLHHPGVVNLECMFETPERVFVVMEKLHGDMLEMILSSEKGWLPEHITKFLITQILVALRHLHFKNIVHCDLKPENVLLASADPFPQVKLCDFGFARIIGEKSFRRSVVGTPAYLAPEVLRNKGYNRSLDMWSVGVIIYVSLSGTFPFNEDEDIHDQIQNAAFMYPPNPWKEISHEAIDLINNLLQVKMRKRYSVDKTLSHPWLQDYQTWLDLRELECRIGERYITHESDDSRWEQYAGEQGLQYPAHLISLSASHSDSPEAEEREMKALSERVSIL
Assay: PKD1 (Murine Kinase Domain) Enzyme Activity Assay (IMAP fluorescence polarisation)
Format: biochemical
Conditions: 10 μM ATP, 60 minutes, room temperature
From the text: The DNA sequence corresponding to murine PKD1 (see FIG. 1) was inserted into pFastBAc Htb (Invitrogen, USA) at BamH1 and EcoR1 sites using standard molecular biology techniques.
The PKD1 described above was expressed as a hexahistidine tagged protein construct using a commercially available baculoviral expression system that induces protein production in insect cell culture (Bac-to-Bac® HT Baculovirus Expression System, Invitrogen). Protein was typically expressed by inoculating 1 L of sf9 cells with a genetically modified baculovirus containing the gene for the kinase domain of PKD1. Sf9 cells were obtained from ICR Ltd.
Purification of PKD1 was achieved by standard chromatographic procedures. Capture from crude centrifuged lysed cell supernatant was achieved using metal affinity chromatography (GE Healthcare Life Sciences, HiTrap Chelating chromatography column), and fractions showing PKD1 (as assessed by gel electrophoresis and western blot) were further purified by a single polish purification step performed using a mono Q anion exchange chromatography system (GE Healthcare Life Sciences, HiTrap HP Q column). […] This protocol describes the method for screening compounds as inhibitors of Protein Kinase D activity in a 384 well microplate format fluorescence polarisation IMAP assay performed using the Biomek FX.
Kinase Enzyme: Murine PKD1 kinase domain at ˜100 μg/mL, was purified from baculovirus (as described above), obtained from aliquots stored at −70° C. PKD was prepared with a final concentration of 0.1 μg/mL by diluting 1:300 in Reaction Buffer (30 μL per 9 mL-5 mL per plate with an additional 4 mL dead volume) and vortexing prior to use. It was necessary to check this concentration regularly in case of enzyme degradation.
(also known as MAPKAP K2 substrate) was obtained from Molecular Devices (Product code R7127). It was used at 300 nM by diluting 20 μM stock 1:66 in Kinase/Reaction Buffer (135 μL per 9 mL; 75 μL per 5 mL Reaction Buffer for blank wells requiring <1 mL per place with an additional 4 mL dead volume).
A 1 mM ATP stock in Reaction Buffer was prepared from a 10 mM stock in 20 mM NaOH and stored as aliquots at −70° C. It was used at 40 μM by diluting 1 mM stock 1:25 in Reaction Buffer (240 μL per 6 mL-2 mL per plate with an additional 4 mL dead volume) and vortexing prior to use.
IMAP Reagents: IMAP Binding Reagent (product code R7207) and Binding Buffer (product code R7208) were obtained from Molecular Devices and stored at +4° C. The beads were gently re-suspended before diluting by 1:400 in buffer (Binding Buffer is supplied as a 5× stock and so was diluted with water prior to use) and then vortexing before addition to wells. 16 mL water with 4 mL Binding Buffer and 50 μL Binding Reagent were used per plate (17 mL per plate with an additional 3 mL dead volume).
13 μL Substrate in Reaction Buffer was added to ‘blank’ wells to give 200 nM reaction concentration. […] 2 μL 10% DMSO/water was added to ‘blank’ and ‘control’ wells. 5 μL ATP in Reaction Buffer was added to all wells to give 10 μM reaction concentration. The reaction mixture was then incubated at room temperature for 60 minutes. The incubation period was followed by the addition of 40 μL IMAP Binding Reagent in Binding Buffer to all wells. The reaction was then further incubated at room temperature for […].
Percentage inhibition was calculated based on activity of the test sample minus the average values in the blank wells relative to the average values measured in control wells minus the average values in the blank wells.
IC50 values were calculated from 10 point dose sigmoid ‘dose-response’ curves using Xlfit software (IDBS inc, USA). Data were fitted to a 4 parameter logistic model/sigmoidal dose response:
where: A=fit minimum (locked to 0); B=fit maximum (locked to 100); C=fit midpoint (pre-fit to 1); D=slope at linear portion of curve, hillslope (pre-fit to 0.1)

Q: CN(C)CCNC(=O)c1cccc(-c2cnc(N)c(-c3cc4ccccc4s3)c2)c1 [Y-011, 3-(6-Amino-5-benzo[b]thiophen-2-yl-pyridin-3-yl)-N-(2-dimethylamino-ethyl)-benzamide] was tested. Which IC50 did it give?
A: < 1000 nM

Q: Which IC50 does the source give for CN(C)CCNC(=O)c1cccc(-c2cnc(N)c(-c3cc4ccccc4o3)c2)c1 [Y-012, 3-(6-Amino-5-benzofuran-2-yl-pyridin-3-yl)-N-(2-dimethylamino-ethyl)-benzamide] here?
A: < 1000 nM

Q: For CN(C)CCNC(=O)c1cccc(-c2cnc(N)c(-c3cccc(-c4ccccc4)c3)c2)c1 [Y-013, 3-(6-Amino-5-biphenyl-3-yl-pyridin-3-yl)-N-(2-dimethylamino-ethyl)-benzamide], which IC50 is on record?
A: < 1000 nM

Q: CN(C)CCNC(=O)c1cccc(-c2cnc(N)c(-c3ccc(-c4ccccc4)cc3)c2)c1 [Y-014, 3-(6-Amino-5-biphenyl-4-yl-pyridin-3-yl)-N-(2-dimethylamino-ethyl)-benzamide] was tested. Which IC50 did it give?
A: < 1000 nM

Q: With CN(C)CCNC(=O)c1cccc(-c2cnc(N)c(-c3cccc4c3sc3ccccc34)c2)c1 [Y-015, 3-(6-Amino-5-dibenzothiophen-4-yl-pyridin-3-yl)-N-(2-dimethylamino-ethyl)-benzamide] as the molecule, how does the IC50 read?
A: < 1000 nM

Q: For NC(=O)c1cccc(-c2cnc(N)c(-c3ccoc3)c2)c1 [Y-016, 3-(6-Amino-5-furan-3-yl-pyridin-3-yl)-benzamide], which IC50 is on record?
A: < 1000 nM

Q: How did the IC50 turn out when CN(C)CCNC(=O)c1cccc(-c2cnc(N)c(-c3ccoc3)c2)c1 [Y-017, 3-(6-Amino-5-furan-3-yl-pyridin-3-yl)-N-(2-dimethylamino-ethyl)-benzamide] was run?
A: < 1000 nM

Q: For CN(C)CCNC(=O)c1cccc(-c2cnc(N)c(-c3cccc4cnccc34)c2)c1 [Y-018, 3-(6-Amino-5-isoquinolin-5-yl-pyridin-3-yl)-N-(2-dimethylamino-ethyl)-benzamide], which IC50 is on record?
A: 1000 to 10000 nM

Q: For CN(C)CCNC(=O)c1cccc(-c2cnc(N)c(-c3cccc4ccccc34)c2)c1 [Y-019, 3-(6-Amino-5-naphthalen-1-yl-pyridin-3-yl)-N-(2-dimethylamino-ethyl)-benzamide], which IC50 is on record?
A: < 1000 nM

Q: With CN(C)CCNC(=O)c1cccc(-c2cnc(N)c(-c3ccc4ccccc4c3)c2)c1 [Y-020, 3-(6-Amino-5-naphthalen-2-yl-pyridin-3-yl)-N-(2-dimethylamino-ethyl)-benzamide] as the molecule, how does the IC50 read?
A: < 1000 nM

Q: NC(=O)c1cccc(-c2cnc(N)c(-c3cccc4ncccc34)c2)c1 [Y-021, 3-(6-Amino-5-quinolin-5-yl-pyridin-3-yl)-benzamide] was tested. Which IC50 did it give?
A: 1000 to 10000 nM

Q: With CN(C)CCNC(=O)c1cccc(-c2cnc(N)c(-c3cccc4ncccc34)c2)c1 [Y-022, 3-(6-Amino-5-quinolin-5-yl-pyridin-3-yl)-N-(2-dimethylamino-ethyl)-benzamide] as the molecule, how does the IC50 read?
A: < 1000 nM

Q: For CN(C)CCNC(=O)c1cccc(-c2cnc(N)c(-c3cccc4cccnc34)c2)c1 [Y-023, 3-(6-Amino-5-quinolin-8-yl-pyridin-3-yl)-N-(2-dimethylamino-ethyl)-benzamide], which IC50 is on record?
A: < 1000 nM

Q: CN(C)CCNC(=O)c1cccc(-c2cnc(N)c(-c3cccs3)c2)c1 [Y-024, 3-(6-Amino-5-thiophen-2-yl-pyridin-3-yl)-N-(2-dimethylamino-ethyl)-benzamide] was tested. Which IC50 did it give?
A: < 1000 nM

Q: Which IC50 does the source give for NC(=O)c1cccc(-c2cnc(N)c(-c3ccc4[nH]ccc4c3)c2)c1 [Y-025, 3-[6-Amino-5-(1H-indol-5-yl)-pyridin-3-yl]-benzamide] here?
A: < 1000 nM

Q: How did the IC50 turn out when CN(C)CCNC(=O)c1cccc(-c2cnc(N)c(-c3ccc4[nH]ccc4c3)c2)c1 [Y-026, 3-[6-Amino-5-(1H-indol-5-yl)-pyridin-3-yl]-N-(2-dimethylamino-ethyl)-benzamide] was run?
A: < 1000 nM

Q: With CN(C)CCNC(=O)c1cccc(-c2cnc(N)c(-c3ccc4c(ccn4C)c3)c2)c1 [Y-027, 3-[6-Amino-5-(1-methyl-1H-indol-5-yl)-pyridin-3-yl]-N-(2-dimethylamino-ethyl)-benzamide] as the molecule, how does the IC50 read?
A: < 1000 nM

Q: CN(C)CCNC(=O)c1cccc(-c2cnc(N)c(-c3ccc4c(c3)CCO4)c2)c1 [Y-028, 3-[6-Amino-5-(2,3-dihydro-benzofuran-5-yl)-pyridin-3-yl]-N-(2-dimethylamino-ethyl)-benzamide] was tested. Which IC50 did it give?
A: < 1000 nM
